# Test results reported in the supplement of paper PMC9938120.
# Legend:
# Test in all cases: drug sensitivity score (DSS3, normalised partial AUC of % inhibition dose-response) (DSS (score)); higher = more sensitive (stronger inhibition of viability); extreme values may be limits of the assay
# FMOC28 = patient-derived low-grade serous ovarian cancer cells; conditions: 72 h; library: FO5A; assay format: 2D, 384-well, CellTiter-Glo
# Outline: (§1)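 The drug sensitivity score is calculated as a partial area under the percent-inhibition dose-response curve, divided by the log of the upper asymptote; higher scores mean more sensitive. For this score, early-passage (under 10) patient-derived ovarian cancer cells were exposed on 384-well flat clear-bottom plates to compounds at five concentrations across a 10,000-fold range for 72 h at 37 °C, 5% CO2. Viability was read with CellTiter-Glo and processed in Breeze.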
# FMOC03 = patient-derived mucinous ovarian cancer cells; conditions: 72 h; library: FO5A; assay format: 2D, 384-well, CellTiter-Glo
# Outline: as §1
# FMOC17 = patient-derived low-grade serous ovarian cancer cells; conditions: 72 h; library: FO5A; assay format: 2D, 384-well, CellTiter-Glo
# Outline: as §1
# FMOC22 = patient-derived mucinous ovarian cancer cells; conditions: 72 h; library: FO5A; assay format: 2D, 384-well, CellTiter-Glo
# Outline: as §1
# FMOC09 = patient-derived high-grade serous ovarian cancer cells; conditions: 72 h; library: FO5A; assay format: 2D, 384-well, CellTiter-Glo
# Outline: as §1
# FMOC27 = patient-derived low-grade serous ovarian cancer cells; conditions: 72 h; library: FO5A; assay format: 2D, 384-well, CellTiter-Glo
# Outline: as §1
# FMOC04 = patient-derived high-grade serous ovarian cancer cells; conditions: 72 h; library: FO5A; assay format: 2D, 384-well, CellTiter-Glo
# Outline: as §1
# FMOC02_1 = patient-derived low-grade serous ovarian cancer cells; conditions: 72 h; library: FO5A; assay format: 2D, 384-well, CellTiter-Glo
# Outline: as §1
# FMOC06 = patient-derived mucinous ovarian cancer cells; conditions: 72 h; library: FO5A; assay format: 2D, 384-well, CellTiter-Glo
# Outline: as §1
# FMOC02_3 = patient-derived low-grade serous ovarian cancer cells; conditions: 72 h; library: FO5A; assay format: 2D, 384-well, CellTiter-Glo
# Outline: as §1
# FMOC25_2 = patient-derived low-grade serous ovarian cancer cells; conditions: 72 h; library: FO5A; assay format: 2D, 384-well, CellTiter-Glo
# Outline: as §1
# FMOC14 = patient-derived high-grade serous ovarian cancer cells; conditions: 72 h; library: FO5A; assay format: 2D, 384-well, CellTiter-Glo
# Outline: as §1
# FMOC02_2 = patient-derived low-grade serous ovarian cancer cells; conditions: 72 h; library: FO5A; assay format: 2D, 384-well, CellTiter-Glo
# Outline: as §1
# FMOC24 = patient-derived high-grade serous ovarian cancer cells; conditions: 72 h; library: FO5A; assay format: 2D, 384-well, CellTiter-Glo
# Outline: as §1
# FMOC11 = patient-derived high-grade serous ovarian cancer cells; conditions: 72 h; library: FO5A; assay format: 2D, 384-well, CellTiter-Glo
# Outline: as §1
# FMOC25_1 = patient-derived low-grade serous ovarian cancer cells; conditions: 72 h; library: FO4B; assay format: 2D, 384-well, CellTiter-Glo
# Outline: as §1
Compound,drug sensitivity score (FMOC28),drug sensitivity score (FMOC03),drug sensitivity score (FMOC17),drug sensitivity score (FMOC22),drug sensitivity score (FMOC09),drug sensitivity score (FMOC27),drug sensitivity score (FMOC04),drug sensitivity score (FMOC02_1),drug sensitivity score (FMOC06),drug sensitivity score (FMOC02_3),drug sensitivity score (FMOC25_2),drug sensitivity score (FMOC14),drug sensitivity score (FMOC02_2),drug sensitivity score (FMOC24),drug sensitivity score (FMOC11),drug sensitivity score (FMOC25_1)
CC[C@@H]1[C@H](F)C(=O)N[C@@H]1COc1nccc2cc(C(N)=O)c(OC)cc12,0,0,0,0,0,0.5,0,2.6,0,5.2,4,0,0.6,0,0,–
CNS(=O)(=O)Nc1nccc(Cc2c(C)c3ccc(Oc4ncccn4)cc3oc2=O)c1F,4.5,0.4,0,0.7,0.7,0,0,0,0.4,3.7,5.2,0,0.8,0,0,–
CONC(=O)c1ccccc1Nc1cc(Nc2cc(C)nn2C(C)C)ncc1Cl,0,0,0.3,0,1.4,0,0,0,0,1,1.7,0,1.6,0.2,0,–
Cn1cc(-c2ccc(F)c(C(F)(F)F)c2)nc1C1CCN(c2ncnc3[nH]ncc23)CC1,3.8,0,0.6,0,0,0.1,0,3.1,0,5.4,5.6,0,3.9,0,0,–
O=C(NCc1ccncc1)C12CC3CC(C1)CC(c1ccc(Cl)cc1)(C3)C2,4.8,4.5,3.1,5.2,4.2,4.1,2,2.6,5.6,5.3,3.1,1.6,3.2,4.7,5.8,–
COc1cc(Nc2ncc(F)c(Nc3ccc4c(n3)NC(=O)C(C)(C)O4)n2)cc(OC)c1OC [Tamatinib],–,2.5,–,0,0.7,–,–,–,0,9.6,8.7,0,13,5.3,–,7.2
Cc1nc(-c2cn3c(n2)-c2ccc(-c4cnn(C(C)(C)C(N)=O)c4)cc2OCC3)n(C(C)C)n1 [Taselisib],–,4.5,–,2.9,10.1,–,–,–,9.6,12.2,8.6,4.3,12.7,0.85,–,8.2
CO[C@H]1C[C@@H]2CC[C@@H](C)[C@@](O)(O2)C(=O)C(=O)N2CCCC[C@H]2C(=O)O[C@H]([C@H](C)C[C@@H]2CC[C@@H](OC(=O)C(C)(CO)CO)[C@H](OC)C2)CC(=O)[C@H](C)/C=C(\C)[C@@H](O)[C@@H](OC)C(=O)[C@H](C)C[C@H](C)/C=C/C=C/C=C/1C [Temsirolimus],–,5.6,–,9.7,3.5,–,–,–,2.5,16.5,13.1,8.9,9.5,0.5,–,13.6
Nc1nc2[nH]cnc2c(=S)[nH]1 [Thioguanine],–,0,–,0,0,–,–,–,0,4.3,6.3,0,3.2,0.95,–,5.3
CC[C@@]1(O)C(=O)OCc2c1cc1n(c2=O)Cc2cc3c(CN(C)C)c(O)ccc3nc2-1 [Topotecan],–,8.1,–,15.6,8.4,–,–,–,8.2,15.3,16.8,9.4,9.7,7,–,12.7
CC(C)C[C@@H](C(=O)N[C@H](C(=O)OC1CCCC1)c1ccccc1)[C@H](O)C(=O)NO [Tosedostat],–,7.6,–,1.8,6.6,–,–,–,11.9,11,4.7,5.3,7.2,19.7,–,6.2
Cc1cc(Nc2cc(N3CCN(C)CC3)nc(Sc3ccc(NC(=O)C4CC4)cc3)n2)n[nH]1 [Tozasertib],–,2.2,–,2.9,4.7,–,–,–,3.5,5.7,3.6,0.6,5,0.65,–,2.6
CC(=O)Nc1cccc(-n2c(=O)n(C3CC3)c(=O)c3c(Nc4ccc(I)cc4F)n(C)c(=O)c(C)c32)c1 [Trametinib],–,16.6,–,11.6,9.9,–,–,–,15.9,14,12,0.9,15.1,0,–,12.4
CN[C@@H]1C[C@H]2O[C@@](C)([C@@H]1OC)n1c3ccccc3c3c4c(c5c6ccccc6n2c5c31)C(=O)N[C@H]4O [UCN-01],–,17.2,–,15.9,20.7,–,–,–,23.2,33.7,34.4,19.8,33.1,24.4,–,31
CC(C)Nc1cc(-c2c[nH]c(C(=O)N[C@H](CO)c3cccc(Cl)c3)c2)c(Cl)cn1 [Ulixertinib],–,10,–,7.5,6.7,–,–,–,11.4,13.1,10.6,0.6,10.6,0.05,–,12.3
Cn1ncc(Cl)c1-c1cc(C(=O)N[C@H](CN)Cc2ccc(F)c(F)c2)oc1Cl [Uprosertib],–,0,–,0.7,0,–,–,–,4.3,13.7,4.1,3.5,13.1,1.35,–,3.5
CNC(=O)c1ccccc1Nc1cc(Nc2ccc(N3CCOCC3)cc2OC)ncc1C(F)(F)F [VS-4718],–,4.2,–,6,11.5,–,–,–,9.6,13.8,12.6,0.7,12,3.2,–,6.1
CCCCC(=O)OCC(=O)[C@]1(O)Cc2c(O)c3c(c(O)c2[C@@H](O[C@H]2C[C@H](NC(=O)C(F)(F)F)[C@H](O)[C@H](C)O2)C1)C(=O)c1c(OC)cccc1C3=O [Valrubicin],–,5.3,–,7.8,7.1,–,–,–,6.5,9.2,9,5.1,6.8,7,–,9.1
C[C@@H]1COC(Nc2ccc3ncnc(Nc4ccc(OCc5nccs5)c(Cl)c4)c3c2)=N1 [Varlitinib],–,9,–,0.1,6.5,–,–,–,0.3,6.3,5.1,0.5,12.5,0.5,–,8.3
O=C(/C=C\n1cnc(-c2cc(C(F)(F)F)cc(C(F)(F)F)c2)n1)NNc1ccccn1 [Verdinexor],–,8.2,–,8.6,7.6,–,–,–,11.2,9.2,11.9,6,9.4,11.2,–,6.2
CC[C@]1(O)C[C@@H]2CN(CCc3c([nH]c4ccccc34)[C@@](C(=O)OC)(c3cc4c(cc3OC)N(C)[C@H]3[C@@](O)(C(=O)OC)[C@H](OC(C)=O)[C@]5(CC)C=CCN6CC[C@]43[C@@H]65)C2)C1 [Vinblastine],–,7.5,–,6.8,8.3,–,–,–,2.4,17.2,15.9,0,3.7,0.45,–,10.9
CC[C@]1(O)C[C@H]2CN(CCc3c([nH]c4ccccc34)[C@@](C(=O)OC)(c3cc4c(cc3OC)N(C=O)[C@H]3[C@@](O)(C(=O)OC)[C@H](OC(C)=O)[C@]5(CC)C=CCN6CC[C@]43[C@@H]65)C2)C1 [Vincristine],–,6.2,–,5.9,12.5,–,–,–,3.4,15.4,13,0.3,4.7,5.05,–,9.4
CCC1=C[C@@H]2CN(C1)Cc1c([nH]c3ccccc13)[C@@](C(=O)OC)(c1cc3c(cc1OC)N(C)[C@H]1[C@@](O)(C(=O)OC)[C@H](OC(C)=O)[C@]4(CC)C=CCN5CC[C@]31[C@@H]54)C2 [Vinorelbine],–,17.9,–,16.3,17.9,–,–,–,17.1,23.1,17.8,2.4,14.8,6.6,–,17.7
CC[C@@H]1C(=O)N(C)c2cnc(Nc3ccc(C(=O)N[C@H]4CC[C@H](N5CCN(CC6CC6)CC5)CC4)cc3OC)nc2N1C(C)C [Volasertib],–,3.5,–,3.9,5.1,–,–,–,1.2,7.6,8.5,0.4,6.1,2.9,–,3.2
O=C(CCCCCCC(=O)Nc1ccccc1)NO [Vorinostat],–,5.5,–,4.6,3.1,–,–,–,7.4,7.7,8.5,6.8,9.8,10.1,–,5.5
Oc1nc(-c2ccc(C(F)(F)F)cc2)nc2c1CSCC2 [XAV-939],–,1.7,–,0,0,–,–,–,0.5,6,9.9,2.1,8.5,3.55,–,6.9
FC(F)c1nc2ccccc2n1-c1nc(N2CCOCC2)nc(N2CCOCC2)n1 [ZSTK474],–,10.6,–,5.6,11.8,–,–,–,12.5,18.4,16.8,9.8,16.9,4.65,–,15.6
